The record followed here is US9221823B2, “Crystal form of pyrrolidylthiocarbapenem derivative” (Shionogi & Co., Ltd., priority 2000, dated 2015).

Assay type in all cases: physicochemical
The nature of data set [1]: Moisture measurement after storage (Karl Fischer water determination). The following applies: for Moisture absorption (in words): storage at 40° C. and 75% RH up to 1 month. How it is done:
Storage conditions were 40° C. and 75% RH. The periods of time for storage were 1 week, 2 weeks and 1 month. During these storage periods, samples were stored in opened petri dishes. After storage in this manner, the moisture and potency of each sample were measured. The moisture was measured according to REQUIREMENT FOR ANTIBIOTIC PRODUCTS OF JAPAN General Tests MOISTURE DETERMINATION II Water determination. Note that Karl Fischer formamide methanol mixture II was used as the solvent.

Data set [2] in a line: Potency test by liquid chromatography after storage. The following applies: for Change of potency over storage time (in words): storage at 40° C. and 75% RH up to 1 month. On the procedure: Storage conditions were 40° C. and 75% RH. The periods of time for storage were 1 week, 2 weeks and 1 month. During these storage periods, samples were stored in opened petri dishes.
After storage in this manner, the moisture and potency of each sample were measured.
A potency test was conducted by the following method. About 0.025 g of each of the type IV crystal obtained in Example 4 and type II crystal and a standard product of S-4661 was precisely measured. Each sample was dissolved in water to precisely 100 mL. 10 mL of each solution was precisely measured, to which 5 ml of internal standard solution was added. As the internal standard solution, aqueous acetaminophen solution (concentration 1/20000:1 g of acetaminophen in 20000 ml of the solution) was used. Thereafter, water was added to each solution to 50 mL. Solutions prepared from the type IV or II crystals were used as sample solutions. A solution prepared from a standard product of S-4661 was used as a standard solution. 10 μL of each of the sample solutions and the standard solution were subjected to liquid chromatography under the following conditions. For the sample solution, the ratio QT of the peak area of S-4661 to the peak area of the internal standard substance was obtained. For the standard solution, the ratio QS of the peak area of S-4661 to the peak area of the internal standard substance was obtained.
Conditions for Operation • Detector: ultraviolet absorptiometer (measurement wavelength: 240 nm) • Column: a stainless steel tube having an inner diameter of about 4.6 mm and a length of about 15 cm was filled with 5 μm of octadecylsilylated silica gel for liquid chromatography (L-column ODS). • Column temperature: a constant temperature of around 25° C. • Mobile phase: 2 mmol/L phosphate buffer pH 5.8/acetonitrile mixture (191:9) • Flow rate: Flow rate was adjusted so that the retention time of S-4661 was about 8 to 9 minutes (about 1 mL/min). • Selection of column: 10 μL of standard solution was used and the operation was conducted under the above-described conditions. A column, which elutes S-4661 and the internal standard substance in this order and has a resolution between S-4661 and the internal standard substance of at least 3, was used.
Potencies were calculated by the following expression.

Data set [3] is described as follows: Assessment of storage stability of crystals. The following applies: for Storage stability (in words): compared to conventional type I or II crystals. How it is done: The storage stability of the thus-obtained crystal of the present invention was assessed.
Hereinafter, a result of evaluation of comparing the stability of the crystals of the present invention with that of a conventional crystal (type II crystal) is specifically shown.
The stability of type II crystal of S4661 (conventional crystal) was compared with that of the type IV crystal obtained in the above-described Example 4.

[4] abbreviates: 1 month storage at 40° C. and 75% RH, opened petri dish.
Setting [5] is: 1 week storage at 40° C. and 75% RH, opened petri dish.
Where [6] appears, read: 2 weeks storage at 40° C. and 75% RH, opened petri dish.

Take `C[C@@H](O)[C@H]1C(=O)N2C(C(=O)O)=C(S[C@@H]3CN[C@H](CNS(N)(=O)=O)C3)[C@H](C)[C@H]12` [Type II, (+)-(4R,5S,6S)-6-[(1R)-1-hydroxyethyl]-4-methyl-7-oxo-3[[(3S,5S)-5-(sulfamoylaminomethyl)pyrrolidin-3-yl]thio]-1-azabicyclo[3.2.0]hept-2-ene-2-carboxylic acid]: the Moisture in data set [1] (setting [4]) is reported as 10.31%; in data set [1] (setting [5]), 9.51%; in data set [1] (setting [6]), 10.36%; in data set [1] (Initial time, before storage), 4.56%. The “Moisture level at which moisture became constant” value in data set [1] (after about two weeks at 40° C. and 75% RH) is listed as “about 10%”. Further, in data set [1] (listed as type II crystal), the “Moisture absorption (in words)” value is listed as “absorbs moisture”. Moreover, the Potency in data set [2] (setting [4]) worked out at 826.4 µg/mg; in data set [2] (setting [5]), 956.2 µg/mg; in data set [2] (setting [6]) it was 923.0 µg/mg; in data set [2] (Initial time, before storage), 983.2 µg/mg. In addition, the “Change of potency over storage time (in words)” value in data set [2] (listed as type II crystal) is “decreased over time”.
For `C[C@@H](O)[C@H]1C(=O)N2C(C(=O)O)=C(S[C@@H]3CN[C@H](CNS(N)(=O)=O)C3)[C@H](C)[C@H]12` [Type III, (+)-(4R,5S,6S)-6-[(1R)-1-hydroxyethyl]-4-methyl-7-oxo-3[[(3S,5S)-5-(sulfamoylaminomethyl)pyrrolidin-3-yl]thio]-1-azabicyclo[3.2.0]hept-2-ene-2-carboxylic acid], the “Storage stability (in words)” value in data set [3] (listed as type III crystal) was “excellent storage stability as compared to conventional type I or II crystals”.
`C[C@@H](O)[C@H]1C(=O)N2C(C(=O)O)=C(S[C@@H]3CN[C@H](CNS(N)(=O)=O)C3)[C@H](C)[C@H]12` [Type IV, (+)-(4R,5S,6S)-6-[(1R)-1-hydroxyethyl]-4-methyl-7-oxo-3[[(3S,5S)-5-(sulfamoylaminomethyl)pyrrolidin-3-yl]thio]-1-azabicyclo[3.2.0]hept-2-ene-2-carboxylic acid]: the Moisture came out at 4.99% in data set [1] (setting [4]); 4.79% in data set [1] (setting [5]); 4.89% in data set [1] (setting [6]); 4.62% in data set [1] (Initial time, before storage). Moreover, in data set [1] (listed as type IV crystal), the “Moisture absorption (in words)” value is on record as “absorbs substantially no moisture”. Also, the Potency in data set [2] (setting [4]) was 981.5 µg/mg; in data set [2] (setting [5]), 990.8 µg/mg; in data set [2] (setting [6]), 992.4 µg/mg; in data set [2] (Initial time, before storage) it was 993.3 µg/mg. Moreover, the “Change of potency over storage time (in words)” value in data set [2] (listed as type IV crystal) was “no significant change”. Moreover, the “Storage stability (in words)” value in data set [3] (listed as type IV crystal) is “more excellent storage stability”. In addition, the “Stability relative to type II crystal (other test results, in words)” value in data set [3] (other test results) is listed as “more stable than the type II crystal”.
